Results as given in patent US12540118B2, “Dendrene amide compound, bactericide and use thereof” (Jiangsu Flag Chemical Industry Co., Ltd., priority 2020, dated 2026).
Like-named read-outs stand apart in the source and are kept apart here.

Legend:
[1] = test system: Fusarium fujikura; assay: Therapeutic activity against rice bakanae disease; assay type: in vivo; details: 5 μg/mL, solvent DMSO
From the text: (§1) Test of protective activity and therapeutic activity of Compound 1 against rice bakanae disease.
(§2) The test and investigation method refers to SOP-SC-1112 rice bakanae disease potting method in disinfectant rolls written by KANGZHUO and GUBAOGEN in “Standard operation specification for testing biological activity of pesticides”.
(§3) The phenamacril is a mainstream medicament for preventing and treating the rice bakanae disease at present, resistant strains are more and more along with long-time use, and […] strains showing sensitivity and one strain showing resistance to the […] are selected as test strains.
(§4) Four Fusarium fujikura SX18-32, SX18-50, SX18-59 and SX18-63 are selected for testing strains, and the current mainstream commercial bactericide phenamacril is selected as a positive control. Wherein SX18-32, SX18-50 and SX18-59 show sensitivity to phenamacril and SX18-63 show resistance to phenamacril.

[2] = test system: Fusarium fujikura; assay: Protective activity against rice bakanae disease; assay type: in vivo; details: 5 μg/mL, solvent DMSO
From the text: as §1, §2, §3, §4

[3] = molecular target: T1, succinate dehydrogenase (Sus scrofa, UniProt A5GZW8+D0VWV4+Q007T0); assay: Enzyme activity assay, succinate dehydrogenase (DCIP reduction); assay type: biochemical, porcine; details: read-out: Inhibitors (10 μM, SQR)
T1 construct: isolated from porcine hearts; from tissue; host or cells: porcine heart
In short: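 Porcine heart succinate dehydrogenase (2 nM) in 100 mM sodium phosphate pH 7.4, 0.3 mM EDTA, 20 mM sodium succinate and 53 μM DCIP at 23° C with stirring. DCIP reduction followed at 600 nm (ε 21 mM^−1 cm^−1); linear slope minus baseline gives initial rate.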

[4] = test system: Erysiphe graminis; assay: Erysiphe graminis potting method; assay type: in vivo; details: for pest or weed control at 100 µg/mL: Blumeria graminis, read-out: Erysiphe graminis control rating
Description: The fungicidal activity of the control agents and target compounds are determined. The test and investigation method refers to SOP-SC-1116 Erysiphe graminis potting method in disinfectant rolls written by KANGZHUO and GUBAOGEN in “Standard operation specification for testing biological activity of pesticides”.

[5] = test system: Sphaerotheca fuliginea; assay: Sphaerotheca fuliginea potting method; assay type: in vivo; details: 100 mg/L; for pest or weed control at 100 µg/mL: Podosphaera fuliginea, read-out: Sphaerotheca fuliginea control rating
Description: The fungicidal activity of the control agents and target compounds are determined. The test and investigation method refers to SOP-SC-1101 sphaerotheca fuliginea potting method in disinfectant rolls written by KANGZHUO and GUBAOGEN in “Standard operation specification for testing biological activity of pesticides”.

[6] = test system: Phytophthora infestans; assay type: cell-based
[7] = test system: Sclerotinia sclerotiorum; assay: Mycelial growth rate method; assay type: cell-based
[8] = test system: Gibberella zeae; assay type: cell-based
[9] = test system: Rhizoctonia cerealis; assay: Mycelial growth rate method; assay type: cell-based
[10] = test system: Alternaria alternata; assay: Mycelial growth rate method; assay type: cell-based
[11] = test system: Alternaria solani; assay: Mycelial growth rate method; assay type: cell-based
[12] = test system: Phytophthora capsici; assay: Mycelial growth rate method; assay type: cell-based
[13] = test system: Fusarium wilt of water melon; assay: Mycelial growth rate method; assay type: cell-based
[14] = test system: Corn big spot; assay: Mycelial growth rate method; assay type: cell-based
[15] = test system: Sphaerotheca fuliginea; assay: Field test of sphaerotheca fuliginea; assay type: in vivo; details: 100 mg/L
Description: The test is carried out according to GB/T17980.30-2000 of pesticide field efficacy test guidelines. The survey method is to randomly take four points for each cell and survey all leaves of 2 plants per point. And investigating the sphaerotheca fuliginea incidence before the first application, and investigating the sphaerotheca fuliginea incidence 7 and 14 days after the second application respectively, and calculating the disease index and the controlling effect.

T1 sequence (Q0QF01 43-664 partner): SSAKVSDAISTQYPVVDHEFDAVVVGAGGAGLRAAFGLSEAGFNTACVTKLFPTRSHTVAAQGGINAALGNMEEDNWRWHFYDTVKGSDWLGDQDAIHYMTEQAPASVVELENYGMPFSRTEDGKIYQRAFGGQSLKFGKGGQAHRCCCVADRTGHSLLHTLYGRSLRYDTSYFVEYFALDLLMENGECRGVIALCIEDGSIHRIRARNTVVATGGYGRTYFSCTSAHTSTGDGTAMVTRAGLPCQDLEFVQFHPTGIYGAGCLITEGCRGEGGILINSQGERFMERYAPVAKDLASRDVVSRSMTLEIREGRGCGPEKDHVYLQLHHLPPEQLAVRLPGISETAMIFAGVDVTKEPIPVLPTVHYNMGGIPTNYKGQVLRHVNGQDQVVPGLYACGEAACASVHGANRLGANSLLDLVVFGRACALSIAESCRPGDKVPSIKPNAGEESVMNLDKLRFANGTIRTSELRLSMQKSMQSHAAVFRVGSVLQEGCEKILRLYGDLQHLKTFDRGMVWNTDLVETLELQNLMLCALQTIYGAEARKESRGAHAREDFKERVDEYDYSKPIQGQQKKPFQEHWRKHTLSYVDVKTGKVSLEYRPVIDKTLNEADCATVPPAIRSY
T1 sequence (Q007T0 29-280): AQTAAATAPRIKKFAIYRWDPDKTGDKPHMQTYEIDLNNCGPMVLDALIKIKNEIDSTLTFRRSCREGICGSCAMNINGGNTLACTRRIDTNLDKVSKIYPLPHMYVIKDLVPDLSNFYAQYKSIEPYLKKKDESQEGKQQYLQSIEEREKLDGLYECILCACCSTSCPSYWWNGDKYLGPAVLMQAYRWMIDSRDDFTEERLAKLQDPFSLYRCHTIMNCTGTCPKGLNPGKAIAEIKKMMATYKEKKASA
T1 sequence (D0VWV4 30-169): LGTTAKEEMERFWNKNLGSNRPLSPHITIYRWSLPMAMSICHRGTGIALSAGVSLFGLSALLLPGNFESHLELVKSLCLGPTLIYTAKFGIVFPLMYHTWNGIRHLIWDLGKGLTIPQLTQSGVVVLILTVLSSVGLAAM
T1 sequence (A5GZW8 57-159 limits assumed): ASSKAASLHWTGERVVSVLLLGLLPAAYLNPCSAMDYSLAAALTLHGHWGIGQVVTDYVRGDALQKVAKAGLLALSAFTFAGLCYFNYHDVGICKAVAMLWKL

In the case of `CCOC(=O)C(C#N)=C(N)c1ccccc1` [Phenamacril, reference compound], the Therapeutic activity ([1]; strain SX18-32 (S)) is reported as 23.8%, the Therapeutic activity ([1]; strain SX18-59 (S)) is reported as 50.0% and the Therapeutic activity ([1]; strain SX18-59 (S), listed as phenamacril) is reported as “about 50%”. For the same compound, the Therapeutic activity ([1]; strain SX18-63 (R)) was 0%, the Therapeutic activity ([1]; strain SX18-63 (R), listed as phenamacril) was “almost no therapeutic activity” and the Protective activity ([2]; strain SX18-32 (S)) was 83.6%. The Protective activity ([2]; strain SX18-59 (S)) was 58.8% and the Protective activity ([2]; strain SX18-63 (R)) was 19.6%.

With `CC(C(=C(Cl)Cl)c1ccccc1Br)N(C(=O)c1c(C(F)F)nn(C)c1F)C1CC1` (stereo not shown) [Compound 185] the inhibition at 10 µM [3] was greater than 90%, the pest or weed control at 100 µg/mL ([4]; 100 mg/L) was 80 to 100% and the pest or weed control at 100 µg/mL [5] was 80 to 100%.

In the case of `Cn1nc(C(F)F)c(C(=O)N(CC(=C(Cl)Cl)c2c(Br)cccc2Br)C2CC2)c1F` [Compound 136], the inhibition at 10 µM [3] is reported as greater than 90%, the pest or weed control at 100 µg/mL ([4]; 100 mg/L) is reported as 80 to 100% and the pest or weed control at 100 µg/mL [5] is reported as 80 to 100%.

For `CC(C(=C(Cl)Cl)c1ccccc1S(C)(=O)=O)N(C(=O)c1c(C(F)F)nn(C)c1F)C1CC1` (stereo not shown) [Compound 214], the inhibition at 10 µM [3] was greater than 90%, the pest or weed control at 100 µg/mL ([4]; 100 mg/L) was 80 to 100% and the pest or weed control at 100 µg/mL [5] was 80 to 100%.

In the case of `Cn1nc(C(F)F)c(C(=O)N(CC(=C(Cl)Cl)c2cc(F)ccc2F)C2CC2)c1F` [Compound 127], the inhibition at 10 µM [3] is reported as greater than 90%, the pest or weed control at 100 µg/mL ([4]; 100 mg/L) is reported as 80 to 100% and the pest or weed control at 100 µg/mL [5] is reported as 80 to 100%.

Work on `C=C(CN(C(=O)c1c(C(F)F)nn(C)c1F)C1CC1)c1c(Br)cccc1Br` [Compound 30] yielded an inhibition at 10 µM [3] greater than 90%, a pest or weed control at 100 µg/mL ([4]; 100 mg/L) of 80 to 100% and a pest or weed control at 100 µg/mL [5] of 80 to 100%.

With `CC(C(=C(Cl)Cl)c1ccccc1F)N(C(=O)c1c(C(F)F)nn(C)c1F)C1CC1` (stereo not shown) [Compound 176] the inhibition at 10 µM [3] was greater than 90%, the pest or weed control at 100 µg/mL ([4]; 100 mg/L) was 80 to 100% and the pest or weed control at 100 µg/mL [5] was 80 to 100%.

`C=C(CN(C(=O)c1c(C(F)F)nn(C)c1F)C1CC1)c1ccccc1` [Compound 9] gave an inhibition at 10 µM [3] greater than 90%, a pest or weed control at 100 µg/mL ([4]; 100 mg/L) of 80 to 100% and a pest or weed control at 100 µg/mL [5] of less than 70%.

`CON(C(=O)c1cn(C)nc1C(F)F)C(C)Cc1c(Cl)cc(Cl)cc1Cl` (stereo not shown) [Pydiflumetofen, reference compound] was tested, and the “Erysiphe graminis control rating” value ([4]; 6.25 mg/L) was “A (80% ≤ A ≤ 100%)”, the “Erysiphe graminis control rating” value ([4]; 25 mg/L) was “A (80% ≤ A ≤ 100%)” and the “Erysiphe graminis control rating” value ([4]; 100 mg/L) was “A (80% ≤ A ≤ 100%)”. For the same compound, the “Sphaerotheca fuliginea control rating” value [5] was “A (80% ≤ A ≤ 100%)”, the “Inhibition ratio (%) Phytophthora infestans” value ([6]; 1.5625 μg/mL) was “A (80% ≤ A ≤ 100%)” and the “Inhibition ratio (%) Phytophthora infestans” value ([6]; 6.25 μg/mL) was “A (80% ≤ A ≤ 100%)”. The “Inhibition ratio (%) Phytophthora infestans” value ([6]; 25 μg/mL) was “A (80% ≤ A ≤ 100%)”, the “Inhibition ratio (%) Sclerotinia sclerotiorum” value ([7]; 1.5625 μg/mL) was “C (C <70%)” and the “Inhibition ratio (%) Sclerotinia sclerotiorum” value ([7]; 6.25 μg/mL) was “A (80% ≤ A ≤ 100%)”. For the same compound, the “Inhibition ratio (%) Sclerotinia sclerotiorum” value ([7]; 25 μg/mL) was “A (80% ≤ A ≤ 100%)”, the “Inhibition ratio (%) Gibberella zeae” value ([8]; 1.5625 μg/mL) was “A (80% ≤ A ≤ 100%)” and the “Inhibition ratio (%) Gibberella zeae” value ([8]; 6.25 μg/mL) was “A (80% ≤ A ≤ 100%)”. For the same compound, the “Inhibition ratio (%) Gibberella zeae” value ([8]; 25 μg/mL) was “A (80% ≤ A ≤ 100%)”, the “Inhibition ratio (%) Rhizoctonia cerealis” value ([9]; 1.5625 μg/mL) was “A (80% ≤ A ≤ 100%)” and the “Inhibition ratio (%) Rhizoctonia cerealis” value ([9]; 6.25 μg/mL) was “A (80% ≤ A ≤ 100%)”. For the same compound, the “Inhibition ratio (%) Rhizoctonia cerealis” value ([9]; 25 μg/mL) was “A (80% ≤ A ≤ 100%)”, the “Inhibition ratio (%) Alternaria alternata” value ([10]; 1.5625 μg/mL) was “A (80% ≤ A ≤ 100%)” and the “Inhibition ratio (%) Alternaria alternata” value ([10]; 6.25 μg/mL) was “A (80% ≤ A ≤ 100%)”. For the same compound, the “Inhibition ratio (%) Alternaria alternata” value ([10]; 25 μg/mL) was “A (80% ≤ A ≤ 100%)”, the “Inhibition ratio (%) Alternaria solani” value ([11]; 1.5625 μg/mL) was “A (80% ≤ A ≤ 100%)” and the “Inhibition ratio (%) Alternaria solani” value ([11]; 6.25 μg/mL) was “A (80% ≤ A ≤ 100%)”. For the same compound, the “Inhibition ratio (%) Alternaria solani” value ([11]; 25 μg/mL) was “A (80% ≤ A ≤ 100%)”, the “Inhibition ratio (%) Phytophthora capsici” value ([12]; 1.5625 μg/mL) was “B (70% ≤ B < 80%)” and the “Inhibition ratio (%) Phytophthora capsici” value ([12]; 6.25 μg/mL) was “A (80% ≤ A ≤ 100%)”. The “Inhibition ratio (%) Phytophthora capsici” value ([12]; 25 μg/mL) was “A (80% ≤ A ≤ 100%)”, the “Inhibition ratio (%) Fusarium wilt of water melon” value (from here on “Inhibition ratio (%) Fusarium wilt”) ([13]; 1.5625 μg/mL) was “A (80% ≤ A ≤ 100%)” and the “Inhibition ratio (%) Fusarium wilt” value ([13]; 6.25 μg/mL) was “A (80% ≤ A ≤ 100%)”. The “Inhibition ratio (%) Fusarium wilt” value ([13]; 25 μg/mL) was “A (80% ≤ A ≤ 100%)”, the “Inhibition ratio (%) Corn big spot” value ([14]; 1.5625 μg/mL) was “A (80% ≤ A ≤ 100%)” and the “Inhibition ratio (%) Corn big spot” value ([14]; 6.25 μg/mL) was “A (80% ≤ A ≤ 100%)”. The “Inhibition ratio (%) Corn big spot” value ([14]; 25 μg/mL) was “A (80% ≤ A ≤ 100%)” and the Controlling effect % [15] was 92%.

`CC(C(=C(Cl)Cl)c1ccc(C(F)(F)F)cc1Cl)N(C(=O)c1c(C(F)F)nn(C)c1F)C1CC1` (stereo not shown) [Compound 211] showed an inhibition at 10 µM [3] greater than 90%, a pest or weed control at 100 µg/mL ([4]; 100 mg/L) of 80 to 100% and a pest or weed control at 100 µg/mL [5] of 80 to 100%.

Compound `C=C(CN(C(=O)c1c(C(F)F)nn(C)c1F)C1CC1)c1ccccc1Cl` [Compound 7] has an inhibition at 10 µM [3] greater than 90%, a pest or weed control at 100 µg/mL ([4]; 100 mg/L) of 80 to 100% and a pest or weed control at 100 µg/mL [5] of 80 to 100%.

With `CC(C(=C(Cl)Cl)c1cc(F)ccc1F)N(C(=O)c1c(C(F)F)nn(C)c1F)C1CC1` (stereo not shown) [Compound 180] the inhibition at 10 µM [3] was greater than 90%, the pest or weed control at 100 µg/mL ([4]; 100 mg/L) was 80 to 100% and the pest or weed control at 100 µg/mL [5] was 80 to 100%.

In the case of `Cn1nc(C(F)F)c(C(=O)N(CC(=C(Cl)Cl)c2ccc(C#CC3CC3)cc2Cl)C2CC2)c1F` [Compound 165], the inhibition at 10 µM [3] is reported as greater than 90%, the pest or weed control at 100 µg/mL ([4]; 100 mg/L) is reported as 80 to 100% and the pest or weed control at 100 µg/mL [5] is reported as 80 to 100%.

Compound `Cn1nc(C(F)F)c(C(=O)N(CC(=C(Cl)Cl)c2c(Cl)cc(Cl)cc2Cl)C2CC2)c1F` [Compound 123] has an inhibition at 10 µM [3] greater than 90%, a pest or weed control at 100 µg/mL ([4]; 100 mg/L) of 80 to 100% and a pest or weed control at 100 µg/mL [5] of 80 to 100%.

Compound `C=C(CN(C(=O)c1c(C(F)F)nn(C)c1F)C1CC1)c1c(F)cc(F)cc1F` [Compound 26] has an inhibition at 10 µM [3] greater than 90%, a pest or weed control at 100 µg/mL ([4]; 100 mg/L) of 80 to 100% and a pest or weed control at 100 µg/mL [5] of 80 to 100%.

In the case of `C=C(CN(C(=O)c1c(C(F)F)nn(C)c1F)C1CC1)c1ccc(Cl)c(C(F)(F)F)c1` [Compound 11], the inhibition at 10 µM [3] is reported as greater than 90%, the pest or weed control at 100 µg/mL ([4]; 100 mg/L) is reported as 80 to 100% and the pest or weed control at 100 µg/mL [5] is reported as 80 to 100%.
